Values quoted from earlier work in patent US20090068287A1, “Novel topical formulations of flucytosine and uses thereof” (priority 2007, published 2009).

Tests used:
C. tropicalis [1] = conditions: 70 C. tropicalis isolates
C. tropicalis [2] = conditions: 28 patients on miconazole nitrate, 13 on clotrimazole, nightly for seven nights; 3 secondarily on ketoconazole 200 mg for 14 days
C. glabrata [3] = conditions: boric acid 600 mg/day 2 to 3 weeks; flucytosine cream nightly for 14 days
C. albicans = conditions: 104 patients with vulvovaginal candidiasis
Candida albicans = conditions: 342 Candida albicans isolates
C. glabrata [4] = conditions: 68 C. glabrata isolates
C. parapsilosis = conditions: 65 C. parapsilosis isolates
[5] = human, in vivo

Compound: CC(=O)N1CCN(c2ccc(OCC3COC(Cn4ccnc4)(c4ccc(Cl)cc4Cl)O3)cc2)CC1 (stereo not drawn) [ketoconazole]
- cross-resistance of fluconazole/itraconazole resistant C. albicans isolates (clinical yeast isolates): decreased susceptibilities
- isolates resistant (C. tropicalis [1]): 2.9%
- patients with recurrences (C. tropicalis [2]): all three

Compound: C[C@@H]1[C@H](O)[C@@H](C)/C=C/C=C/CC/C=C/C=C/C=C/C=C/C(O[C@H]2O[C@H](C)[C@@H](O)[C@H](N)[C@@H]2O)CC2O[C@](O)(CC(O)C(O)CCC(O)CC(O)CC(O)CC(=O)O[C@H]1C)CC(O)C2C(=O)O (stereo partly drawn) [nystatin]
- cross-resistance of fluconazole/itraconazole resistant C. albicans isolates (clinical yeast isolates): no cross-resistance

Compound: OB(O)O [boric acid]
- clinical and mycological success / successful outcome, number of women (C. glabrata [3]): 47 of 73
- clinical and mycological success / successful outcome, percent of women (C. glabrata [3]): 64%

Compound: C[C@@H]1[C@H](O)[C@@H](C)/C=C/C=C/C=C/C=C/C=C/C=C/C=C/[C@H](O[C@@H]2O[C@H](C)[C@@H](O)[C@H](N)[C@@H]2O)C[C@@H]2O[C@](O)(C[C@@H](O)C[C@@H](O)[C@H](O)CC[C@@H](O)C[C@@H](O)CC(=O)O[C@H]1C)C[C@H](O)[C@H]2C(=O)O [amphotericin B]
- cross-resistance of fluconazole/itraconazole resistant C. albicans isolates (clinical yeast isolates): no cross-resistance

Compound: OC(Cn1cncn1)(Cn1cncn1)c1ccc(F)cc1F [fluconazole]
- resistant C. albicans isolated, share of the cases (C. albicans): 13.46%
- yeast strains resistant (clinical yeast isolates; 227 clinical yeast isolates): Almost thirteen percent
- isolates showing resistance (Candida albicans): 7.6%
- isolates resistant (C. tropicalis [1]): 27.1%
- isolates resistant (C. glabrata [4]): 10.3%
- isolates resistant (C. parapsilosis): 4.6%

Compound: Clc1ccc(COC(Cn2ccnc2)c2ccc(Cl)cc2Cl)c(Cl)c1 (stereo not drawn) [miconazole]
- cross-resistance of fluconazole/itraconazole resistant C. albicans isolates (clinical yeast isolates): decreased susceptibilities

Compound: Nc1nc(=O)[nH]cc1F [flucytosine, 4-amino-5-fluoropyrimidin-2(1H)-one]
- plasma level that led to bone marrow depression and hepatotoxicity [5]: greater than 100 mg/L
